The values below come from patent publication US8569511B2, “Substituted 3-(1H-benzo[d]imidazol-2-yl)-1H-indazole analogs as inhibitors of the PDK1 kinase” (University of Utah Research Foundation, priority 2011, dated 2013).

Experiment [1] deals with HCT-15. Kind of experiment: Cell viability assay, cancer cell line panel. It is filed as cell-based. The settings on record: Homo sapiens, mutation KRAS, PIK3CA.
Experiment [2] has as its system MV4-11 cell line. Kind of experiment: Screen of further cell lines. It is filed as cell-based. As to conditions: acute myeloid leukemic line. From the text: (§1) In order to determine if there were additional cell lines that were profoundly sensitive to this compound, a further 82 cell lines were screened which represented more than 20 different tumor types of origin. […] Without wishing to bound by a particular theory, these three additional cell lines are all acute myeloid leukemic lines that have different activating mutations in oncogenes that have been associated with elevated PI3K activity. MV4-11 has the FLT3 internal tandem duplication (ITD) and Kasumi-1 has amplified and mutated c-kit as well as the AML-ETO gene fusion. […] All three lines have wild-type PTEN but have shown to express very low levels of PTEN protein, which makes them functionally deficient for PTEN.

The subject of experiment [3] is KG-1 cell line. Kind of experiment: Screen of further cell lines. The settings on record: acute myeloid leukemic line. The class given is cell-based.
Excerpt: as §1

In experiment [4] the test system is Kasumi cell line. In words: Screen of further cell lines. The class given is cell-based. As to conditions: acute myeloid leukemic line.
Excerpt: as §1

Experiment [5] has as its system AKT phosphorylation (Thr308) in AN3-CA cells. Kind of experiment: AKT (T308) Phosphorylation Assay (Meso Scale Discovery). The settings on record: Homo sapiens, 24 hours, FIG. 7A, read-out: IC50 knock down of phospho-AKT (Thr308) levels. It is filed as cell-based. As for the experimental part:
AN3-CA cells were plated in 900 μl of RPMI-1640 media supplemented with 10% FBS and 1% Pen/Strep at a density of 8×10^5 cells per well in 6-well plates. Cells were allowed to attach by incubation overnight at 37° C. and 5% CO2. Test compounds were diluted to 10× concentrations in RPMI-1640 media (containing 3% DMSO) and 100 μl of these dilutions were added to the appropriate wells containing the cells. The plates containing the drug-treated cells and appropriate controls were incubated for 24 hours. At the end of incubation, phosphorylated AKT was evaluated in treated and control samples using a Meso Scale Discovery (Gaithersburg, Md.) assay kit (human Phospho-Akt (Thr308) kit) and by following the manufacturer's instructions included with the kit. Total AKT (phosphorylated and unphosphorylated) was also evaluated in the samples using a separate kit (Meso Scale Discovery). The percentage of AKT phosphorylated at the Thr308 position (also indicated as T308 herein) was determined by normalizing the phospho-AKT signal to the total AKT signal and then showing the percent phosphorylation in the treated samples relative to the controls.
Briefly, AN3-CA cells were treated with the compound for 24 hours and lysates from these treatments were analyzed for phospho-AKT (Thr308) using the Meso Scale Discovery technology platform as described above.

Experiment [6] relates to NCCIT. Kind of experiment: Cell viability assay, cancer cell line panel. The class given is cell-based. The settings on record: Homo sapiens, mutation PTEN.
Experiment [7] has as its target VEGFR1 (Homo sapiens (Human), UniProt P17948). In words: Kinase profiling, fluorometric assays by Life Technologies. The class given is biochemical. The settings on record: profiling at 500 nM, FIG. 8. As for the experimental part: (§2) The panel comprised 78 distinct protein kinases, and data are shown for a subset of 20 kineases (see FIG. 8). Kinase profiling was performed against a focus panel of kinases relevant to PDK1 signaling and other known oncogenic kinases. The activity profiling as performed at 500 nM and percent inhibition at that concentration was determined for each kinase shown.
(§3) The kinase specificity was measured using fluorometric assays performed by Life Technologies (Grand Island, N.Y.). Assay conditions vary for each kinase and are available from Life Technologies, Grand Island, NY. For example, the assay conditions for PDK1 are as follows. The 2×PDK1/Ser/Thr-07 mixture is prepared in 50 mM Tris pH 8.5, 0.01% BRIJ-35, 10 mM MgCl2, 1 mM EGTA, 0.02% NaN3. The final 10 μL Kinase Reaction consists of 7.36-38.7 ng PDK1 and 2 μM Ser/Thr 07. After the 1 hour kinase reaction incubation, 5 μL of a 1:32768 dilution of Development Reagent A is added.

The target of experiment [8] is PDGFRA (Homo sapiens (Human), UniProt P16234). Described as above. It is filed as biochemical. As to conditions: profiling at 500 nM, FIG. 8. How it is done: as §2, §3
Experiment [9] has as its target VEGFR2 (Homo sapiens (Human), UniProt P35968). Described as above. It is filed as biochemical. As to conditions: profiling at 500 nM, FIG. 8. As for the experimental part: as §2, §3
In experiment [10] the target is p70S6K (Homo sapiens (Human), UniProt P23443). The description is as above. As to conditions: profiling at 500 nM, FIG. 8. The class given is biochemical. As for the experimental part: as §2, §3
Experiment [11] relates to LNCap. Kind of experiment: Cell viability assay, cancer cell line panel. It is filed as cell-based. The settings on record: Homo sapiens, mutation PTEN.
Experiment [12] has as its system HT-29. Kind of experiment: Cell viability assay, cancer cell line panel. The class given is cell-based. The settings on record: Homo sapiens, mutation PIK3CA, BRAF.
The test system of experiment [13] is AGS. Kind of experiment: Cell viability assay, cancer cell line panel. The class given is cell-based. As to conditions: Homo sapiens, mutation KRAS, PIK3CA.
Experiment [14] concerns 786-O. Kind of experiment: Cell viability assay, cancer cell line panel. The settings on record: Homo sapiens, 786-0; mutation PTEN. The class given is cell-based.
The test system of experiment [15] is T47D. Kind of experiment: Cell viability assay, cancer cell line panel. It is filed as cell-based. As to conditions: Homo sapiens, mutation PIK3CA.
Experiment [16] deals with PC-3. In words: Cell viability assay, cancer cell line panel. It is filed as cell-based. As to conditions: Homo sapiens, mutation PTEN.
The test system of experiment [17] is BT-20. In words: Cell viability assay, cancer cell line panel. It is filed as cell-based. As to conditions: Homo sapiens, mutation PIK3CA.

Chain of p70S6K (P23443 whole entry): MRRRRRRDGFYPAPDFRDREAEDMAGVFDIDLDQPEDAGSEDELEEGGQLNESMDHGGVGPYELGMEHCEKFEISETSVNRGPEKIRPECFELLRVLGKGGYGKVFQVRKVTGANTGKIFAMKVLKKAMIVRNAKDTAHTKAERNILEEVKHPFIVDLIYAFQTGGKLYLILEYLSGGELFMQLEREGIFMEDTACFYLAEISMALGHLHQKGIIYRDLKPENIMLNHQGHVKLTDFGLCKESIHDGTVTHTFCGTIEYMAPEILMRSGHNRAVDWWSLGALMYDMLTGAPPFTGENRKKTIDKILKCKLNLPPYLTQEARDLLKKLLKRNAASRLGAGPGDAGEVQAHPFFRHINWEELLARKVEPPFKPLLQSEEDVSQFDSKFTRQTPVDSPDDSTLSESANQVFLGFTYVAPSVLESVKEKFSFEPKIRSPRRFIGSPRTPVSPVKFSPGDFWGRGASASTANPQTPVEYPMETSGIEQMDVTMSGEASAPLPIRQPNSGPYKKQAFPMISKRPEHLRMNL
Chain of VEGFR2 (P35968 20-1356): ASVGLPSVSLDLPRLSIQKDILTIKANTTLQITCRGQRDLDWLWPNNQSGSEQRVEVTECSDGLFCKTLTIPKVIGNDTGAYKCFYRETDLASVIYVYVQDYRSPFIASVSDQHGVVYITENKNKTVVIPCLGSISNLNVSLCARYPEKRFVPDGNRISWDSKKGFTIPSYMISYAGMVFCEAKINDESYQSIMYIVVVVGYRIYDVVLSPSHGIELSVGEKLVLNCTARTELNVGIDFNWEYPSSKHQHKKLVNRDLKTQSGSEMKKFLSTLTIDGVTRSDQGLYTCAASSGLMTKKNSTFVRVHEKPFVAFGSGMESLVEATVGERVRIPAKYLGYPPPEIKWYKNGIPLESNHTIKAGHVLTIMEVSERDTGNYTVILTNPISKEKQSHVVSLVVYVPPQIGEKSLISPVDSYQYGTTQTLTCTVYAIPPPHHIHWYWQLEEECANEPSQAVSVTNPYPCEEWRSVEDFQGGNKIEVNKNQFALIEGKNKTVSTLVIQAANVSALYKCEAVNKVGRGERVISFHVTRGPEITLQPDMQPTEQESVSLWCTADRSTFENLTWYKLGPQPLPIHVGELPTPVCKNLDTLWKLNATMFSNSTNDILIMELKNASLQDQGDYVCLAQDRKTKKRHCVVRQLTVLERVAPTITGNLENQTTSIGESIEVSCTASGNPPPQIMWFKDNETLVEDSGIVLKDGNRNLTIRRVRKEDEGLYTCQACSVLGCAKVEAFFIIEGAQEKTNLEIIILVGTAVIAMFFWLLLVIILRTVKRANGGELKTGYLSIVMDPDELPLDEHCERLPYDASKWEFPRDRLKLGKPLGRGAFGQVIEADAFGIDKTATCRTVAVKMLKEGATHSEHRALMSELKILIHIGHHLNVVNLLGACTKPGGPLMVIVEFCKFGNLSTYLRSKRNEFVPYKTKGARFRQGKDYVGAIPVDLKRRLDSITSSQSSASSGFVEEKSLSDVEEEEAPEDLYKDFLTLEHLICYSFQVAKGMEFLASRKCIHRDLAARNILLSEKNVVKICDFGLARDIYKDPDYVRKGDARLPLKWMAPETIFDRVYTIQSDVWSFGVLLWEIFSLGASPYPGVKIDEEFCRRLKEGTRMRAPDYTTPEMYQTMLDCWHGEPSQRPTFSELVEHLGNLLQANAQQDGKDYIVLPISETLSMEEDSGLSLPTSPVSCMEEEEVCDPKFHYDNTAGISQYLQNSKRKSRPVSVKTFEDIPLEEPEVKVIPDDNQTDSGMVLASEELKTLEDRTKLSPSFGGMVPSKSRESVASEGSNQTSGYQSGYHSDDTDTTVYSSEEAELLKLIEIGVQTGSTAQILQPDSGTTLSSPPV
Chain of PDGFRA (P16234 24-1089): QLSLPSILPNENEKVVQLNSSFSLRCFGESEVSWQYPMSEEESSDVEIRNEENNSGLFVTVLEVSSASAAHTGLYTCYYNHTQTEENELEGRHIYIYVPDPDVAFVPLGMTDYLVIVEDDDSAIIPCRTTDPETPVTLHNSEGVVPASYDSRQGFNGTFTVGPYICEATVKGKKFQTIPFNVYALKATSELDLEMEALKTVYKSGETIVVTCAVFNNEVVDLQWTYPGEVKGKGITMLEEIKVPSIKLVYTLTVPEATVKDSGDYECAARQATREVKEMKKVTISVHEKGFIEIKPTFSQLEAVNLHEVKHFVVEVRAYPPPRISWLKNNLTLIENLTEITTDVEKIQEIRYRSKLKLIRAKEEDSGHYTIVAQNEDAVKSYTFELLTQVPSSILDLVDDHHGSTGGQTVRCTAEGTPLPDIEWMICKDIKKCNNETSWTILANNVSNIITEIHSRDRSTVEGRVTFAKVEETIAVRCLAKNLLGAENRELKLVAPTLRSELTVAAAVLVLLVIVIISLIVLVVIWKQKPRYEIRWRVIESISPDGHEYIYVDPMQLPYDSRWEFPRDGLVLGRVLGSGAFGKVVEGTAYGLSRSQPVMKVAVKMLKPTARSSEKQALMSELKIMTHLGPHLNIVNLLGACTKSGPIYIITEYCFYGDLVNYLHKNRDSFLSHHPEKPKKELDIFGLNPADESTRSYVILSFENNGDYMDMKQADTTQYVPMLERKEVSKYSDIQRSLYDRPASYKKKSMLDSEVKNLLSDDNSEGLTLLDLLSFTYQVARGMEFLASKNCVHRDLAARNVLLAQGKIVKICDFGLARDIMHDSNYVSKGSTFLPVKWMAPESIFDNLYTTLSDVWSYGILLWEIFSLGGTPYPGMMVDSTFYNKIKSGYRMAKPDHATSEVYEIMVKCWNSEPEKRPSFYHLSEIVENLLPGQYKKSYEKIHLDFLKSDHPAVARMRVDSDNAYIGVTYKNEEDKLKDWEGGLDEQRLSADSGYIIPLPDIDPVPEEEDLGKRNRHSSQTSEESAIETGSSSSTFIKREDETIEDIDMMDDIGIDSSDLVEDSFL
Chain of VEGFR1 (P17948 27-1338): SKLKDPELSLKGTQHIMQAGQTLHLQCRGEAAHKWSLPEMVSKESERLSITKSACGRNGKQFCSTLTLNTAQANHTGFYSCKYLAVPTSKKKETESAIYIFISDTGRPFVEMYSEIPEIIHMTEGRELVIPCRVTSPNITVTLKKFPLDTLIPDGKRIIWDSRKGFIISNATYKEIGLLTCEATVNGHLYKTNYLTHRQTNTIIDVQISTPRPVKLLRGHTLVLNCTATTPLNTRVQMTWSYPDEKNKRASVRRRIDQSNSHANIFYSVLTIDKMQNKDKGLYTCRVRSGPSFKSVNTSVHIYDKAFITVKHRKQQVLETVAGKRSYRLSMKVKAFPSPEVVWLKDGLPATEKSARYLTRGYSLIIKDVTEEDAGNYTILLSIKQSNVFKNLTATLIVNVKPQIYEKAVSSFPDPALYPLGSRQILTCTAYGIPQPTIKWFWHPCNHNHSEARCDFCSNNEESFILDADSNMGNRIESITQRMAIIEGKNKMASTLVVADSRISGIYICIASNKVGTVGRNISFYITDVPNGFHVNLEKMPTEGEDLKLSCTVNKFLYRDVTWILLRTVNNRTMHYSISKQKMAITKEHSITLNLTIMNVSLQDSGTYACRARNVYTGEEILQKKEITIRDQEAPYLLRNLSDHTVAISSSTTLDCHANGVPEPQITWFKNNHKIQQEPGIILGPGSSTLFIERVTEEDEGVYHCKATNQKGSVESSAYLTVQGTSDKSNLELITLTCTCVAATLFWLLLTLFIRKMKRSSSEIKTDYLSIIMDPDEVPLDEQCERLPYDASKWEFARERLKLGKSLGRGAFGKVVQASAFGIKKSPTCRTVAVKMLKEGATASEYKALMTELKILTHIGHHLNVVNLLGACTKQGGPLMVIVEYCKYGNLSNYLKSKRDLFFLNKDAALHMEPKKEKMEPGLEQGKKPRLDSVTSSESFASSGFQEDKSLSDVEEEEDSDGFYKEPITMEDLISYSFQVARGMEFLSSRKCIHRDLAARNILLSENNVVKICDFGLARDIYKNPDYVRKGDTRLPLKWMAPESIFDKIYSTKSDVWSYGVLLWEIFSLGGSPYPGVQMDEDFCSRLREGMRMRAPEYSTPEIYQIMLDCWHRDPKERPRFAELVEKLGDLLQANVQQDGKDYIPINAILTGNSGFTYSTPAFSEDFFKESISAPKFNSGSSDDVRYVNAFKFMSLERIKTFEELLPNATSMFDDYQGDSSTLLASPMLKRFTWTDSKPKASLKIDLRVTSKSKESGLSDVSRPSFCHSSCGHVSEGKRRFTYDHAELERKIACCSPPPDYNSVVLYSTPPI

The term IC50 denotes the concentration that gives 50% inhibition. Turning to `O=C(Nc1ccc2[nH]nc(-c3nc4ccc(N5CCOCC5)cc4[nH]3)c2c1)C1CC1(F)F` (centres unmarked) [Compound 1, 2,2-difluoro-N-(3-(5-morpholino-1H-benzo[d]imidazol-2-yl)-1H-indazol-5-yl)cyclopropanecarboxamide], the IC50 in experiment [1] turned out to be 6.99 µM; in experiment [5] it was 0.051 µM; in experiment [6] it was 2.11 µM; in experiment [11], 24.8 µM; in [12] it was 10.6 µM; in experiment [13], 2.77 µM. Moreover, the IC50 in experiment [14] was found to be 6.01 µM; in [15] it was 12.8 µM; in [16] it was 7.56 µM; in experiment [17], 13.1 µM. For the same compound, the “Sensitivity of MV4-11 cell line” value in experiment [2] is on record as “very sensitive”. In addition, the “Sensitivity of KG-1 cell line” value in experiment [3] is reported as “very sensitive”. Further, in experiment [4], the “Sensitivity of Kasumi cell line” value is recorded as “very sensitive”. Besides, the “Kinase profiling activity against VEGFR1 (in words)” value in experiment [7] is recorded as “relatively potent activity”. Also, the “Kinase profiling activity against PDGFRA (in words)” value in [8] was “relatively potent activity”. In addition, the “Kinase profiling activity against VEGFR2 (in words)” value in experiment [9] is “relatively potent activity”. Besides, the “Kinase profiling activity against p70S6K (in words)” value in experiment [10] was “potent activity”.
